Test results taken from ChEMBL document CHEMBL1201862, “PubChem BioAssay data set” (2004).
The source made the active and inactive calls. Unless noted, the calls are words filed in the database; no cut-off is given here.

What was measured:
[1] = time-course viability loss in HT-29 cells – cell-based, CellTiter-Glo, multiple timepoints, dry powder, HRas target identification project, dose response (AID 720598); assay type: functional
[2] = cytotoxicity in SR immunoblastic lymphoma cells – cell-based, CellTiter-Glo ATP luminescence, 8-48 h, dry powder, mechanism study for HRAS target identification, late-stage follow-up (AID 720608); assay type: functional
[3] = cytotoxicity in SNB-19 cells – cell-based, CellTiter-Glo ATP luminescence, 8-48 h, dry powder, mechanism study for HRAS target identification, late-stage follow-up (AID 720611); assay type: functional
[4] = cytotoxicity in LOX IMVI melanoma cells – cell-based, CellTiter-Glo ATP luminescence, 8/24/48 h, dry powder, HRAS target identification, dose response (AID 720602); assay type: functional
[5] = cytotoxicity in HeLa cervical cancer cells – cell-based, CellTiter-Glo ATP luminescence, 8-48 h, dry powder, mechanism study for HRAS target identification, late-stage follow-up (AID 720609); assay type: functional
[6] = cytotoxicity in SNB-75 CNS cells – cell-based, CellTiter-Glo ATP luminescence, several timepoints, dry powder, mechanism study for HRAS target identification, late-stage follow-up (AID 720624); assay type: functional
[7] = cytotoxicity in primary human umbilical endothelium – cell-based, CellTiter-Glo ATP luminescence, 8/24/48 h, dry powder, cytotoxicity control for HRAS target identification, dose response (AID 720604); assay type: functional; conditions: HUVEC
[8] = cytotoxicity in mouse C2C12 myoblasts – cell-based, CellTiter-Glo ATP luminescence, 8/24/48 h, dry powder, cytotoxicity control for HRAS target identification, dose response (AID 720603); assay type: functional
[9] = cytotoxicity in SNB-19 CNS tumor cells – cell-based, Alamar Blue fluorescence, 8/24/48 h, dry powder, HRAS target identification, dose response (AID 720600); assay type: functional
[10] = cytotoxicity in U-251 glioma cells – cell-based, CellTiter-Glo ATP luminescence, several timepoints, dry powder, mechanism study for HRAS target identification, late-stage follow-up (AID 720616); assay type: functional
[11] = cytotoxicity in CCRF-CEM lymphoblastic leukemia cells – cell-based, CellTiter-Glo ATP luminescence, 8/24/48 h, dry powder, HRAS target identification, dose response (AID 720607); assay type: functional
[12] = IC50 of Artemis nuclease activity blockers – biochemical, fluorescence intensity, dose response (AID 720701); assay type: functional;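 further: Artemis endonuclease enzyme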
[13] = test system: BJ; experiment: BJ-TERT fibroblast viability loss – cell-based, RAS-independent, luminescence, dose response (AID 1933); assay type: functional; conditions: Homo sapiens
[14] = target: T1, Heat shock factor protein 1 (Mus musculus, UniProt P38532); experiment: decrease of HSF1-responsive luciferase luminescence – cell-based, NIH3T3, dose retest, confirmation (AID 2382); assay type: functional;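 further: NIH3T3 fibroblasts with HSF1-driven luciferase reporter stressed by proteasome inhibitor MG132; luminescence from HSF1-driven luciferase expression after 8 hours of MG132 stress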
T1 sequence (P38532 whole entry): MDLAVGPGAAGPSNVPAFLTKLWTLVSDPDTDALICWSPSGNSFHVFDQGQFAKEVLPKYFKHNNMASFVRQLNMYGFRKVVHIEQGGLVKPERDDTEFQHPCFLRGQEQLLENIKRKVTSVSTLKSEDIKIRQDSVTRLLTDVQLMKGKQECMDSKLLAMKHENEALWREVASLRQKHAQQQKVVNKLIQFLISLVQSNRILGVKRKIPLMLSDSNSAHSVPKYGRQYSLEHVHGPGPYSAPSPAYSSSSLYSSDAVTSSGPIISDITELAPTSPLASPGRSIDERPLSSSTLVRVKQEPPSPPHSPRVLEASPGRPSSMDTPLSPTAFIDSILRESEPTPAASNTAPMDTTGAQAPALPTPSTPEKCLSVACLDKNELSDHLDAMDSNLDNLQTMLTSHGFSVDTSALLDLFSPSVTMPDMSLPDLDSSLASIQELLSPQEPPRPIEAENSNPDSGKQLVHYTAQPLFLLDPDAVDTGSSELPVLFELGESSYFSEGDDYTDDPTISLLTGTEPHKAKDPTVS

[15] = test system: BJ; experiment: cells; assay type: functional, cell-based; conditions: Homo sapiens
[16] = test system: BJ; experiment: BJ-TERT-LT-ST fibroblast viability loss – cell-based, RAS-independent, luminescence, dose response (AID 1935); assay type: functional; conditions: Homo sapiens;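 further: BJ fibroblasts immortalized with TERT plus LT and ST oncogenes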
[17] = DRD fibroblast viability loss – cell-based, non-viral oncogenic, luminescence, dose response (AID 1934); assay type: functional; conditions: Homo sapiens
[18] = HEK-293T viability loss after treatment – luminescence, T-cell screen hits, cytotoxicity control for TCR NF-kB inhibitor project, dose response (AID 489026); assay type: functional, cell-based;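 further: cells exposed to compound about 14 hours before the viability readout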
[19] = test system: BJ; experiment: growth inhibition of engineered Ras-driven BJ cells – cell-based, alamar blue fluorescence, cherrypicked samples, dose response (AID 2631); assay type: functional; conditions: Homo sapiens;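 further: confirmatory dose-response assay in RAS-dependent BJ fibroblasts engineered with TERT, LT and ST, with cytotoxicity read by fluorescence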
[20] = reduction of Shn3 3'UTR-driven luciferase in osteoblasts – cell-based, Clone20 osteoblasts, firefly luciferase, cherry-picked, dose response (AID 624132); assay type: functional;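 further: firefly luciferase luminescence from reporter carrying the Shn3 3'UTR in osteoblasts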
[21] = non-specific 3'UTR reporter inhibition in Clone20-Shn3RL – cell-based, Renilla luciferase, cherry-picked, counter-screen for Shn3 inhibitor project, dose response (AID 624133); assay type: functional
[22] = target: Paired box protein Pax-8 (Homo sapiens, UniProt Q06710); experiment: PAX8 transcriptional activity inhibition in RMG-I – RMG-I cells, luciferase, cherry-pick, dose response (AID 687027); assay type: functional, cell-based;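 further: luciferase reporter driven by Pax8 target thyroperoxidase promoter measured by SteadyGlo luminescence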
[23] = inhibitors acting on PAX2 in cells – cell-based, plate reader, dry powder samples, selectivity assay for PAX8 inhibitor project, dose response (AID 743048); assay type: functional;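 further: HEK293 cells carrying a WT1 promoter luciferase reporter driven by expressed Pax2; potency is for inhibition of Pax2 driven reporter signal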
[24] = COV362 cell viability loss – plate reader, dry powder, SA12, cytotoxicity control for PAX8 inhibitor project, dose response (AID 743144); assay type: functional, cell-based
[25] = toxicity toward immortalized ovarian surface epithelium – cell-based, plate reader, dry powder samples, cytotoxicity control for PAX8 inhibitor project, dose response (AID 743045); assay type: functional
[26] = A2780 cell killing – plate reader, dry powder samples, cytotoxicity control, dose response (AID 743046); assay type: functional, cell-based
[27] = OVCAR-3 cell viability loss – plate reader, dry powder samples, PAX8 inhibitor project, dose response (AID 743044); assay type: functional, cell-based
[28] = PAX5 cellular inhibition readout – cell-based, plate reader, dry powder samples, selectivity assay for PAX8 inhibitor project, dose response (AID 743047); assay type: functional;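 further: HEK293 cells carrying a Pax5 driven CD19 promoter luciferase reporter; potency of inhibitors that lower reporter luminescence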
[29] = IGROV1 cell killing – plate reader, dry powder samples, PAX8 inhibitor project, dose response (AID 743043); assay type: functional, cell-based; conditions: IGROV-1
[30] = OVCAR4 cell viability loss – plate reader, dry powder, SA11, cytotoxicity control for PAX8 inhibitor project, dose response (AID 743150); assay type: functional, cell-based; conditions: OVCAR-4
[31] = COV434 cell viability loss – plate reader, dry powder, SA7, cytotoxicity control for PAX8 inhibitor project, dose response (AID 743145); assay type: functional, cell-based
[32] = OV-90 cell viability loss – plate reader, dry powder, SA8, PAX8 inhibitor project, dose response (AID 743149); assay type: functional, cell-based
[33] = PAX8-dependent cell viability loss – plate reader, dry powder, dose response (AID 743049); assay type: functional, cell-based
[34] = intracellular Trypanosoma cruzi inhibitors in host cells – cell-based, plate reader, cherry-pick samples, set 3, dose response (AID 651818); assay type: functional;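 further: compounds incubated with infected cells for about four days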
[35] = HepG2 cell viability loss – cherry-picked samples, cytotoxicity control, dose response (AID 1053183); assay type: functional, cell-based
[36] = HEK293 cell viability loss – cherry-picked samples, cytotoxicity control, dose response (AID 1053185); assay type: functional, cell-based
[37] = A549 cell viability loss – cherry-picked samples, cytotoxicity control, dose response (AID 1053184); assay type: functional, cell-based
[38] = reduced cellular PGC1a acetyl-lysine signal – cell-based, cherry-picked samples, dose response (AID 720514); assay type: functional;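 further: potency may reflect raised or lowered acetylation signal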
[39] = target: Kallikrein-7 (Homo sapiens, UniProt P49862); experiment: Fluorescence Intensity-based biochemical primary high throughput dose response assay to identify activators of kallikrein-7 (K7) zymogen.
[40] = target: Potassium channel subfamily K member 3 (Homo sapiens, UniProt O14649); experiment: inhibition of human KCNK3 channel flux – CHO cells, FluxOR thallium flux, SAR follow-up (AID 652212); assay type: functional
[41] = Late stage assay provider results from the probe development effort to identify inhibitors of the Plasmodium falciparum M18 Aspartyl Aminopeptidase (M18AAP): radiolabel-based cell-based dose response assay to identify compounds that inhibit P. falciparum growth in RBCs, Set 2..; assay type: functional
[42] = target: 1-phosphatidylinositol 4,5-bisphosphate phosphodiesterase gamma-1 (Homo sapiens, UniProt P19174); experiment: Counterscreen for inhibitors of phospholipase C isozymes (PLC-B3): Fluorescence-based biochemical high throughput dose response assay to identify inhibitors of phospholipase C isozymes (PLC-gamma1).
[43] = target: 1-phosphatidylinositol 4,5-bisphosphate phosphodiesterase beta-3 (Homo sapiens, UniProt Q01970); experiment: Fluorescence-based biochemical high throughput dose response assay to identify inhibitors of phospholipase C isozymes (PLC-B3).
[44] = Late stage assay provider results from the probe development effort to identify selective inhibitors of heat shock protein 90 (HSP90): Absorbance-based cell proliferation assay in SKBR3 cells.; assay type: functional; conditions: SK-BR-3
[45] = Late stage assay provider results from the probe development effort to identify selective inhibitors of heat shock protein 90 (HSP90): Absorbance-based cell proliferation assay in MCF7 cells.; assay type: functional
[46] = target: fMet-Leu-Phe receptor (Homo sapiens, UniProt P21462); experiment: formyl peptide receptor binders – dose response (AID 519); assay type: functional
[47] = Luminescence-based cell-based high throughput dose response assay to identify activators of the DAF-12 from the parasite S. stercoralis (ssDAF-12).; assay type: functional
[48] = target: T2, Oxysterols receptor LXR-beta (Homo sapiens, UniProt P55055); experiment: LXR agonists, Gal4 luciferase reporter, dose response, counter-screen for ssDAF-12 agonist project, cell-based, luminescence, HEK293, S. stercoralis campaign (AID 720737); assay type: functional; conditions: read-out: IC50 (the source's name)
T2 sequence (P55055 whole entry): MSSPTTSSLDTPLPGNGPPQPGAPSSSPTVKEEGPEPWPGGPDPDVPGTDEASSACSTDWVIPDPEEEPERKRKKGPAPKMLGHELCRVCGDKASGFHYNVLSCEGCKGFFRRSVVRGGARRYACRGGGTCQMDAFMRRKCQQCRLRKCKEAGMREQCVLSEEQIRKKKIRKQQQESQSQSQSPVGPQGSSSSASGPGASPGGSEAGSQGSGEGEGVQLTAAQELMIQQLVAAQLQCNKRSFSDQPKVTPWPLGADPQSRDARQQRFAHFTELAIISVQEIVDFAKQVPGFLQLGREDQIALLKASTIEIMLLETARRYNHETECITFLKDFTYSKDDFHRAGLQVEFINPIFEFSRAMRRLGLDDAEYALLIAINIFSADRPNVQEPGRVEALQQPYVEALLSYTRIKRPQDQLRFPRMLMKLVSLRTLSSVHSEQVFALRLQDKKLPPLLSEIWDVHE

1-phosphatidylinositol 4,5-bisphosphate phosphodiesterase gamma-1, sequence (P19174 whole entry): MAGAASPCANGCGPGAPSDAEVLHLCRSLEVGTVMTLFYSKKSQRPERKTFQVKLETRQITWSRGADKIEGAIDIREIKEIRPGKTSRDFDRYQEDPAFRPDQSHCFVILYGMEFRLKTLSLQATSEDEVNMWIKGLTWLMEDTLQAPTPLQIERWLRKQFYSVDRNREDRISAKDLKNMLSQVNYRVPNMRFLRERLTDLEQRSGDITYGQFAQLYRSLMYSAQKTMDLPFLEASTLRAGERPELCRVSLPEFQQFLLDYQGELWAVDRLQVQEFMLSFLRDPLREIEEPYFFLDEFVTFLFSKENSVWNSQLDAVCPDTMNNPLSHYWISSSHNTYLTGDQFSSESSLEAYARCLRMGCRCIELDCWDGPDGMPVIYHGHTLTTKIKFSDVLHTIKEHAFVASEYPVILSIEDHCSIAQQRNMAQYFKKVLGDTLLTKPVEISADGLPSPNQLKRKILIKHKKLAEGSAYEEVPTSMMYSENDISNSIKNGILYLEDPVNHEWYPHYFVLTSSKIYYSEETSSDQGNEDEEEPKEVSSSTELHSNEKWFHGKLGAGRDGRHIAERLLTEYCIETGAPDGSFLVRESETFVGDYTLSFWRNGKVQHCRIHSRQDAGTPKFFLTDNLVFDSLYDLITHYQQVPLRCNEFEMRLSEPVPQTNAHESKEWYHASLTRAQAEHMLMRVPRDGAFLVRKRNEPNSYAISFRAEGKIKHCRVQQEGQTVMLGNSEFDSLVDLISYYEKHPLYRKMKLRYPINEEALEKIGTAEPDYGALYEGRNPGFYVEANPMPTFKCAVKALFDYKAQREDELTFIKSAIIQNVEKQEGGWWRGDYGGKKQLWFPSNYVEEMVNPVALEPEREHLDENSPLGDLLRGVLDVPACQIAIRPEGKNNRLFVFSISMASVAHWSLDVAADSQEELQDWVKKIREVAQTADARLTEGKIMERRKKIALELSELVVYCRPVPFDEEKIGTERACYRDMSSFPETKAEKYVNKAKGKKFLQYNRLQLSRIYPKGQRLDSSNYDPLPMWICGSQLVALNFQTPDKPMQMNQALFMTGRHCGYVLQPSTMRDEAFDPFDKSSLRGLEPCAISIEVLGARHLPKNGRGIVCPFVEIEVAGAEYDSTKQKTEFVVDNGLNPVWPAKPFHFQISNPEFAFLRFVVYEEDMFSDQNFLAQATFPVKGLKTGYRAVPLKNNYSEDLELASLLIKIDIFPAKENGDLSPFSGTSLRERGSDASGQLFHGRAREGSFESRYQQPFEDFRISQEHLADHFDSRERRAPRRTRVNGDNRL
Potassium channel subfamily K member 3, sequence (O14649 whole entry): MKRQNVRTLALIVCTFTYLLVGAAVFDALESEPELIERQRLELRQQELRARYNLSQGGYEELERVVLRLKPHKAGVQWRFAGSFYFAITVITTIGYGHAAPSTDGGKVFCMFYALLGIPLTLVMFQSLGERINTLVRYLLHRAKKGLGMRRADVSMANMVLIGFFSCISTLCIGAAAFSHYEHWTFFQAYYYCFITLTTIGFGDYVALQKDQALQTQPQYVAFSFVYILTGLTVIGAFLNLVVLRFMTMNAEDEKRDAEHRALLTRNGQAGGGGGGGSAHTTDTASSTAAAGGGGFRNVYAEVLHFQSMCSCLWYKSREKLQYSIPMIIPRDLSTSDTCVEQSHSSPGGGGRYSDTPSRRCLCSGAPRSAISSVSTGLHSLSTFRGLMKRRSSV
Paired box protein Pax-8, sequence (Q06710 whole entry): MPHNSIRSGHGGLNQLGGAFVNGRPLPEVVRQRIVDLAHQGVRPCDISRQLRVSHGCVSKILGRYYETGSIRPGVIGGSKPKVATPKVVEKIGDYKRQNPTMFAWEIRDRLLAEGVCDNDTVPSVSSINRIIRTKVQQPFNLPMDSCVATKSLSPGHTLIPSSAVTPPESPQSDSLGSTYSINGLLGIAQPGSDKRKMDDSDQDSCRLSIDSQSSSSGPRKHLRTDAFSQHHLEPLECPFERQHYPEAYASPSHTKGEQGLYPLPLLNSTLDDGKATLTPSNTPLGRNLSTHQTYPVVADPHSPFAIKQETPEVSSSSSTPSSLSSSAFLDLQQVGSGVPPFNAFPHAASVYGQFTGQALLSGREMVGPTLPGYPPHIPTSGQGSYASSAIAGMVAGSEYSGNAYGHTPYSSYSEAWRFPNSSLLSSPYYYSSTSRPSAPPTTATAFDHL
fMet-Leu-Phe receptor, sequence (P21462 whole entry): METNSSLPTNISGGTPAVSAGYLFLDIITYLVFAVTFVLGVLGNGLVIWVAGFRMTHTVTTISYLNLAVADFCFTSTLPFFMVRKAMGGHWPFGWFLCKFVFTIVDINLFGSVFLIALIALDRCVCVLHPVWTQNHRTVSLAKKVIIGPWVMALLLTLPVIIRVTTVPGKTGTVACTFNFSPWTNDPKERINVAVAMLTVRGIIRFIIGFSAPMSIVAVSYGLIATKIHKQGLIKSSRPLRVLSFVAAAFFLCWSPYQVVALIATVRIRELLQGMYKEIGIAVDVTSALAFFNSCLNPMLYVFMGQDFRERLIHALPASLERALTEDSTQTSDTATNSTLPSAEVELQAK
1-phosphatidylinositol 4,5-bisphosphate phosphodiesterase beta-3, sequence (Q01970 whole entry): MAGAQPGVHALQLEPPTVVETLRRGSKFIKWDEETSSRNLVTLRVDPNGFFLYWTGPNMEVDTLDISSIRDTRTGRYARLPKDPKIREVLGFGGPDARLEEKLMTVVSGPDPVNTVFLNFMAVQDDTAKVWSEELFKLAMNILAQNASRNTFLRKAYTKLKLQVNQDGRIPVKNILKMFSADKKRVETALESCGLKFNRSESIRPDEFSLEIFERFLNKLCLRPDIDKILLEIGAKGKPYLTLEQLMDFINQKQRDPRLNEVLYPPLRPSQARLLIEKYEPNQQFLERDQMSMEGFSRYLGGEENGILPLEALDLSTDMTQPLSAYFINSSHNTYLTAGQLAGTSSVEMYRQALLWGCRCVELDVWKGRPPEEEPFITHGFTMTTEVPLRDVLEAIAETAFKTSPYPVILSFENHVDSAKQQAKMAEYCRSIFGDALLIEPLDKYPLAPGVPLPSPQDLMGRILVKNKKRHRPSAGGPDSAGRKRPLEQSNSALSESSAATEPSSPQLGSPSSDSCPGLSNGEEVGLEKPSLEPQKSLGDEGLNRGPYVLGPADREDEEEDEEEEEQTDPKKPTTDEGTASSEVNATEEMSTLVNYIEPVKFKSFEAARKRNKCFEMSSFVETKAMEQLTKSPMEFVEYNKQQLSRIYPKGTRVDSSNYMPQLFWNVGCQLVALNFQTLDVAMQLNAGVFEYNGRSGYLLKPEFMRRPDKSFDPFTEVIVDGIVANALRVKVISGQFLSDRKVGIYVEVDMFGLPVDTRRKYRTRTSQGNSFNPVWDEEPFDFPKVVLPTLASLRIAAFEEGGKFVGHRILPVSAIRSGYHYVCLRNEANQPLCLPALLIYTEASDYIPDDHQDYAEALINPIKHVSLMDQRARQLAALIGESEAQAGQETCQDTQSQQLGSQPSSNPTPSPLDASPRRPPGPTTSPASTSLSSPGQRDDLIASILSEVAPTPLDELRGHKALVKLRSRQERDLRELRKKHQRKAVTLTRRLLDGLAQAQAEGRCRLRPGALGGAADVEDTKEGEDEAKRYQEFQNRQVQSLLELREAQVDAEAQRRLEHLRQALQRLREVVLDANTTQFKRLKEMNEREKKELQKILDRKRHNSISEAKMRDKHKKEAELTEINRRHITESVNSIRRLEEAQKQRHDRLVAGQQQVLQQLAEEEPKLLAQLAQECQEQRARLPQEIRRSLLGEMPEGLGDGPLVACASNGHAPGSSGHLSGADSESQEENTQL
Kallikrein-7, sequence (P49862 whole entry): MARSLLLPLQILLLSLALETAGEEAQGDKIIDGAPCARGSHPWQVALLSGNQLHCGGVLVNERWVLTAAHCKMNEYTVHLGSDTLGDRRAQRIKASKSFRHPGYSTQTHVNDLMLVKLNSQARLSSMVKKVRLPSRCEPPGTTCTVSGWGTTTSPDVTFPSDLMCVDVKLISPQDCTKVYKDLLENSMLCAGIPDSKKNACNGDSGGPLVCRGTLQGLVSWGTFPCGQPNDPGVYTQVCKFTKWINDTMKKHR

CC(C)(C)OC(=O)NCCOCCOCCOc1ccc(N(C(=O)CCl)C(C(=O)NCCc2ccccc2)c2cccs2)cc1Cl (stereo not drawn)
AC50 [1]: 0.492 µM (active)
AC50 [2]: 0.126 µM (active)
AC50 [3]: 1.79 µM (active)
AC50 [4]: 0.156 µM (active)
AC50 [5]: 0.675 µM (active)
AC50 [6]: 0.738 µM (active)
AC50 [7]: 21.4 µM (active)
AC50 [8]: 0.643 µM (active)
AC50 [9]: 21.2 µM (active)
AC50 [10]: 1.45 µM (active)
AC50 [11]: 0.177 µM (active)

Cc1cccc(NC(=O)c2sc3nc4c(c(-c5cccs5)c3c2N)CN(C)CC4)c1
IC50 [12]: > 20 µM (inactive)

COc1ccc(C)cc1NS(=O)(=O)c1ccc(-c2cnc(C3CC3)o2)cc1
EC50 [13]: 0.208 µM (active)
EC50 [14]: 0.43 µM (active)
EC50 [15]: 0.99 µM (active)
EC50 [16]: 11.1 µM (inconclusive)
EC50 [17]: 0.388 µM (active)
IC50 [18]: > 80 µM (inactive)
EC50 [19]: < 0.104 µM (active)
AC50 [20]: 3.76 µM (active)
AC50 [21]: 6.58 µM (active)
AC50 [22]: 0.734 µM (active)
AC50 [23]: 8.91 µM (active)
AC50 [24]: 0.118 µM (active)
AC50 [25]: 0.217 µM (active)
AC50 [26]: 3.45 µM (active)
AC50 [27]: 1.77 µM (active)
AC50 [28]: 1.83 µM (active)
AC50 [29]: 1.49 µM (active)
AC50 [30]: 0.199 µM (active)
AC50 [31]: 0.337 µM (active)
AC50 [32]: 0.612 µM (active)
AC50 [33]: 5.69 µM (active)

COc1ccc(S(=O)(=O)Nc2ccc3c(c2)CC(=O)N([C@H](C)CO)C[C@H](C)[C@H](CN(C)Cc2ccc(C(=O)Nc4ccccc4N)cc2)O3)cc1
AC50 [34]: 3.19 µM (active)
AC50 [35]: 24.6 µM (active)
AC50 [36]: 23.6 µM (active)
AC50 [37]: 29.7 µM (active)

Cc1nc2ccccc2c(=O)n1NC(=O)c1ccc(Cl)c([N+](=O)[O-])c1
AC50 [38]: 16.8 µM (active)

COc1cccc(CN2CC(C(=O)NCCc3cn4cccnc4n3)CCC2=O)c1 (stereo not drawn)
EC50 [39]: 23.9 µM (inactive)

CCOc1ccccc1NC(=O)c1cccc(NC(=O)C2CCOC2)c1 (stereo not drawn)
IC50 [40]: 1.33 µM (active)

COc1ccc(CCNc2c3ccccc3nc3ccccc23)cc1
IC50 [41]: 1.1 µM (active)

CCCCn1c(=O)n(CC(=O)Nc2ccc(OC)c(Cl)c2)c(=O)c2c1nc(CO)n2CCC
IC50 [42]: > 123 µM (inactive)
IC50 [43]: > 123 µM (inactive)

COc1ccc(N/C=C2/C=C(Br)C(=O)OC2=O)c(OC)c1
IC50 [44]: 11.4 µM (inactive)
IC50 [45]: 3.8 µM (active)

CCOc1ccc(C(=O)C2=C(O)C(=O)N(CC3CCCO3)C2c2ccco2)cc1 (stereo not drawn)
Ki [46]: 32 µM (inactive)

COc1ccc(-c2noc(CCC(=O)N3CCC(c4cc(C)ccc4C)CC3)n2)cc1
IC50 [47]: > 67.5 µM (inactive)
EC50 [48]: > 67.5 µM (inactive)
